Data as given in patent US20100081690A1, “OXAZOLE DERIVATIVES AS POSITIVE ALLOSTERIC MODULATORS OF METABOTROPIC GLUTAMATE RECEPTORS” (ADDEX PHARMA SA, priority 2006, published 2010).

Molecular target: T1, mGluR5 (Rattus norvegicus, UniProt P31424)
T1 construct: positive allosteric modulators of mGluR5 receptors in native preparations; endogenous in cells; host or cells: primary cortical astrocytes from Sprague-Dawley rat embryos (E16-19)
Experiment: mGluR5 binding assay ([3H]-MPEP, rat brain membranes)
Conditions: competition with 3 nM [3H]-MPEP, rat cortical membranes, 1 h at 4° C.
Excerpt: Activity of compounds of the invention was examined following a radioligand binding technique using whole rat brain and tritiated 2-methyl-6-(phenylethynyl)-pyridine ([^3H]-MPEP) as a ligand following similar methods than those described in Gasparini et al. (2002) Bioorg. Med. Chem. Lett. 12:407-409 and in Anderson et al. (2002) J. Pharmacol. Exp. Ther. 303 (3) 1044-1051.
Cortices were dissected out from brains of 200-300 g Sprague-Dawley rats (Charles River Laboratories, L'Arbresle, France). Tissues were homogenized in 10 volumes (vol/wt) of ice-cold 50 mM Hepes-NaOH (pH 7.4) using a Polytron disrupter (Kinematica AG, Luzern, Switzerland) and centrifuged for 30 min at 40,000 g. (4° C.). […] Protein concentration was determined by the Bradford method (Bio-Rad protein assay, Reinach, Switzerland) with bovine serum albumin as standard.
Membranes were thawed and resuspended in binding buffer containing 20 mM HEPES-NaOH, 3 mM MgCl2, 3 mM CaCl2, 100 mM NaCl, pH 7.4. […] Radioactivity was determined by liquid scintillation spectrometry using a 96-well plate reader (TopCount, Perkin-Elmer, Downers Grove, USA).
The inhibition curves were generated using the Prism GraphPad program (Graph Pad Software Inc, San Diego, USA). […] The mean of IC50 obtained from at least three independent experiments of selected molecules performed in duplicate were calculated.

T1 sequence (P31424 21-1203): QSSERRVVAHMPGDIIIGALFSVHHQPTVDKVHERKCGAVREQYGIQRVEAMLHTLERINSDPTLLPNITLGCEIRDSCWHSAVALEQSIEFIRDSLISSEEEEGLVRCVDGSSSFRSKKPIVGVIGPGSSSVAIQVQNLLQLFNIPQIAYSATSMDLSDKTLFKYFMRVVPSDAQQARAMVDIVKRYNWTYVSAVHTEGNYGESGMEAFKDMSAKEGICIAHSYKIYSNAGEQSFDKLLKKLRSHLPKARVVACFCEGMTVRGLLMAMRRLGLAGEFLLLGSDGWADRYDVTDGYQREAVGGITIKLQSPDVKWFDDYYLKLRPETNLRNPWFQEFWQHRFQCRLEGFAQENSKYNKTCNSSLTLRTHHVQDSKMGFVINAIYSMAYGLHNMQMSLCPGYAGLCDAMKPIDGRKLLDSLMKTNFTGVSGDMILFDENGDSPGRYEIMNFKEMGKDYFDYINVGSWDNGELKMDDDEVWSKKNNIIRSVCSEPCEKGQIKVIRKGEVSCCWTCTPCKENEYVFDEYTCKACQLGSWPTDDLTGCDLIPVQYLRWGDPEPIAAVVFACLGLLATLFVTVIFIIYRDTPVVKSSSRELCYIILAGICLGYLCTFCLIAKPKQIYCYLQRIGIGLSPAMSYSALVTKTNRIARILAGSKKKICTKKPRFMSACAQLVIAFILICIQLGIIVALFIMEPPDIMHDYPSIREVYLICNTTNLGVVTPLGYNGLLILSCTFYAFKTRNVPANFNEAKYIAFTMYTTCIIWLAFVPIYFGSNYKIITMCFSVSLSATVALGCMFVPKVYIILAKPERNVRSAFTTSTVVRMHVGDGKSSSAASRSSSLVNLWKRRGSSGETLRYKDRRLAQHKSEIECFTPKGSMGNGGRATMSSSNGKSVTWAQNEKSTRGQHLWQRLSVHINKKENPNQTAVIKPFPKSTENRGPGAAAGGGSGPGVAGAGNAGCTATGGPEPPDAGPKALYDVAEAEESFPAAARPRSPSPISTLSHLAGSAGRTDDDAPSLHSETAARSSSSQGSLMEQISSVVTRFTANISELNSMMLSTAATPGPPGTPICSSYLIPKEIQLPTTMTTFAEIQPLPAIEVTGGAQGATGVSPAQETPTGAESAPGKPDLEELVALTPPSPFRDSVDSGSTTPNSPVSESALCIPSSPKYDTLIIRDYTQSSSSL

IC50: < 10 µM
Structure (SMILES): O=C(c1ccc(F)cc1)N1CCC[C@H](c2nc(-c3cc(F)c[nH]3)co2)C1 [Example 1, (4-Fluoro-phenyl)-{(S)-3-[4-(4-fluoro-1H-pyrrol-2-yl)-oxazol-2-yl]-piperidin-1-yl}-methanone]
